Consider 22 compounds from US9751861B2, “N1-(3,3,3-trifluoro-2-hydroxo-2-methylpropionyl)-piperidine derivatives as inhibitors of pyruvate dehydrogenase kinase” (MERCK PATENT GMBH, priority 2013, dated 2017).

For one assay, the target named is T1, PDHK2 (Homo sapiens, UniProt Q15119).
T1 construct: purchased Carna Bioscience
Put plainly: Biochemical activity testing of PDHK2: PDC inactivation assay. The conditions noted are these: human rec PDHK2, PDC from porcine heart, ATP 5 μM; read-out: IC50 PDHK2 (enzyme assay). The procedure, abridged:
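Human recombinant PDHK2 (137 nM final) preincubated 30 min at RT with porcine heart PDC (20 mU/ml) and compound in pH 7.0 phosphate buffer, then phosphorylated with 5 μM ATP for 30 min at 37 °C. Residual PDC activity read as NADH fluorescence increase (Ex 340/Em 450) over 45 min; inhibitor-free reaction as full value, 3 mM DCA as zero, IC50 derived.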

A further assay concerns PDH-Elalpha (pSer300). Put plainly: Cellular immunofluorescence assay in HEK293T cells. Format: cell-based. The conditions noted are these: Homo sapiens, HEK-293T, 5 hours incubation, anti-PDH-E1alpha pSer300 immunofluorescence, read-out: IC50 (cell data). The protocol:
Cellular Assay for Determination of Compound Activities
Compound activities were determined in a cellular immunofluorescence assay. Human HEK293T cells were seeded into black 384-well plates with clear bottom and grown overnight.
Next day, test compounds were added to the wells and the plates incubated for 5 hours. Following this, cells were fixed with formaldehyde, permeabilised and blocked. The primary antibody, Anti-PDH-Elalpha (pSer300), AP1064 (Merck Millipore) was added and incubated overnight in the plate wells. Next, cells were washed and the seconday antibody, Alexa Fluor 488, goat anti-rabbit ab (A-11008, Invitrogen) was added together with Hoechst 33258 (H3569, Invitrogen) and incubated for 1 hour in the plate wells. Finally, cells were washed and the plates were measured on the laser scanning cytometer acumen hci (TTpLabtech).
The raw data were normalized against a pharmacological inhibitor control and dose response curves were generated by plotting the percent effect values using the software package Genedata screener (Genedata).

Another assay addresses T2, human PDHK2 (12-407) (Homo sapiens, UniProt Q15119).
T2 construct: The human PDHK2 (12-407) was produced in E. coli; His-tag (cleaved yes); made in house; host or cells: E. coli
As to the kind of experiment: Isothermal titration calorimetry (ITC) binding. The conditions noted are these: 30° C., pH 7.5. The procedure, abridged: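 Untagged PDHK2 (12-407) from E. coli at 50 μM titrated into 5 μM compound at 30° C in pH 7.5 HEPES/KCl/MgCl2/phosphate buffer, ≤1% DMSO. One-site fit gave KA, ΔH^obs and N after heat-of-dilution correction; protein concentration referenced to a standard inhibitor and compound concentration adjusted to 1:1 stoichiometry.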

pIC50, pKd: −log10 of the molar value. Bounds are passed on as bounds.

A word on the pIC50: it is −log10 of the IC50, conventionally taken in molar units. In general, pKd refers to the Kd on a negative log10 scale, so that one unit is a factor of ten. A lower pKd goes with a high Kd. Regarding `C[C@@](O)(C(=O)N1CCC(c2ccnn2-c2nc3ccccc3s2)CC1)C(F)(F)F` [Compound A117, (R)-1-[4-(2-Benzothiazol-2-yl-2H-pyrazol-3-yl)-piperidin-1-yl]-3,3,3-trifluoro-2-hydroxy-2-methyl-propan-1-one], the pIC50 at PDHK2 was 5.52 to 6.52; in the assay on PDH-Elalpha (pSer300) it was 4.30 to 5.52. The negative-log Kd (pKd) at human PDHK2 (12-407) was > 6.52.

As for `C[C@@](O)(C(=O)N1CCC(c2cncn2-c2ccc(Cl)cc2)CC1)C(F)(F)F` [Compound A125, (R)-1-{4-[3-(4-Chloro-phenyl)-3H-imidazol-4-yl]-piperidin-1-yl}-3,3,3-trifluoro-2-hydroxy-2-methyl-propan-1-one], the negative logarithm of the IC50 (pIC50) at PDHK2 and in the assay with PDH-Elalpha (pSer300) was 5.52 to 6.52 in each case. The pKd at human PDHK2 (12-407) is > 6.52.

Turning to `C[C@@](O)(C(=O)N1CCC(c2ccnn2-c2ccc(C#N)cc2)CC1)C(F)(F)F` [Compound A9, 4-{5-[1-((R)-3,3,3-Trifluoro-2-hydroxy-2-methyl-propionyl)-piperidin-4-yl]-pyrazol-1-yl}-benzonitrile], the negative logarithm of the IC50 (pIC50) on PDHK2 and with PDH-Elalpha (pSer300) was 5.52 to 6.52 in each case. For the same compound, at human PDHK2 (12-407), the negative logarithm of the Kd (pKd) was > 6.52.

For the compound `C[C@@](O)(C(=O)N1CCC(c2cncn2-c2ccc(F)cc2)CC1)C(F)(F)F` [Compound A124, (R)-3,3,3-Trifluoro-1-{4-[3-(4-fluoro-phenyl)-3H-imidazol-4-yl]-piperidin-1-yl}-2-hydroxy-2-methyl-propan-1-one], the pIC50 on PDHK2 and with PDH-Elalpha (pSer300) was 5.52 to 6.52 in each case. The negative logarithm of the Kd (pKd) at human PDHK2 (12-407) is > 6.52.

As to `C[C@@](O)(C(=O)N1CCC(c2conc2-c2ccc(F)cc2)CC1)C(F)(F)F` [Compound A129, (R)-3,3,3-Trifluoro-1-{^4-[3-(4-fluoro-phenyl)-isoxazol-4-yl]-piperidin-1-yl}-2-hydroxy-2-methyl-propan-1-one], the pIC50 was 5.52 to 6.52 at PDHK2 and 4.30 to 5.52 with PDH-Elalpha (pSer300). Besides, the pKd on human PDHK2 (12-407) was > 6.52.

On to `C[C@@](O)(C(=O)N1CCC(c2ccnn2-c2ncc(Br)cn2)CC1)C(F)(F)F` [Compound A19, (R)-1-{4-[2-(5-Bromo-pyrimidin-2-yl)-2H-pyrazol-3-yl]-piperidin-1-yl}-3,3,3-trifluoro-2-hydroxy-2-methyl-propan-1-one], for which the negative logarithm of the IC50 (pIC50) at PDHK2 and in the assay on PDH-Elalpha (pSer300) was 5.52 to 6.52 throughout. Besides, the pKd at human PDHK2 (12-407) is > 6.52.

With `C[C@@H]1CN(C(=O)[C@@](C)(O)C(F)(F)F)CC[C@@H]1c1ccnn1-c1ccccc1` [Compound A106, (R)-3,3,3-Trifluoro-2-hydroxy-2-methyl-1-[(3S,4S)-3-methyl-4-(2-phenyl-2H-pyrazol-3-yl)-piperidin-1-yl]-propan-1-one], the negative-log IC50 (pIC50) at PDHK2 and in the assay on PDH-Elalpha (pSer300) was > 6.52 in each case. The pKd on human PDHK2 (12-407) is > 6.52.

For the compound `COCCn1nccc1C1CCN(C(=O)[C@@](C)(O)C(F)(F)F)CC1` [Compound A78, (R)-3,3,3-Trifluoro-2-hydroxy-1-[4-[2-(2-methoxyethyl)-2H-pyrazol-3-yl]-1-piperidyl]-2-methyl-propan-1-one], the pIC50 on PDHK2 was 5.52 to 6.52; with PDH-Elalpha (pSer300), 4.30 to 5.52. For the same compound, the pKd on human PDHK2 (12-407) is > 6.52.

On to `C[C@@](O)(C(=O)N1CCC(n2cncc2-c2ccc(Cl)cc2)CC1)C(F)(F)F` [Compound A64, (2R)-1-[4-[5-(4-chlorophenyl)imidazol-1-yl]-1-piperidyl]-3,3,3-trifluoro-2-hydroxy-2-methyl-propan-1-one], for which the values for the pIC50 at PDHK2 and in the assay with PDH-Elalpha (pSer300) were > 6.52 and 5.52 to 6.52, respectively. On human PDHK2 (12-407), the negative logarithm of the Kd (pKd) is > 6.52.

For `Cc1ccccc1-n1nccc1C1CCN(C(=O)[C@@](C)(O)C(F)(F)F)CC1` [Compound A5, (R)-3,3,3-Trifluoro-2-hydroxy-2-methyl-1-[4-(2-o-tolyl-2H-pyrazol-3-yl)-piperidin-1-yl]-propan-1-one], the negative-log IC50 (pIC50) at PDHK2 and in the assay on PDH-Elalpha (pSer300) was 5.52 to 6.52 in each case. In addition, the negative-log Kd (pKd) on human PDHK2 (12-407) was > 6.52.

In the case of `C[C@@](O)(C(=O)N1CCC(c2ccnn2-c2cccc(Cl)c2F)CC1)C(F)(F)F` [Compound A15, (R)-1-{4-[2-(3-Chloro-2-fluoro-phenyl)-2H-pyrazol-3-yl]-piperidin-1-yl}-3,3,3-trifluoro-2-hydroxy-2-methyl-propan-1-one], the negative logarithm of the IC50 (pIC50) on PDHK2 and in the assay on PDH-Elalpha (pSer300) was > 6.52 throughout. Besides, at human PDHK2 (12-407), the negative logarithm of the Kd (pKd) was > 6.52.

`C[C@@](O)(C(=O)N1CCC(c2ccnn2-c2ccc(C(F)(F)F)cc2)CC1)C(F)(F)F` [Compound A27, (R)-3,3,3-Trifluoro-2-hydroxy-2-methyl-1-{4-[2-(4-trifluoromethyl-phenyl)-2H-pyrazol-3-yl]-piperidin-1-yl}-propan-1-one]: the negative logarithm of the IC50 (pIC50) on PDHK2 was > 6.52; in the assay on PDH-Elalpha (pSer300), 5.52 to 6.52. Further, the pKd on human PDHK2 (12-407) was > 6.52.

For the compound `Cc1cc(-n2nccc2C2CCN(C(=O)[C@@](C)(O)C(F)(F)F)CC2)no1` [Compound A115, (R)-3,3,3-Trifluoro-2-hydroxy-2-methyl-1-{4-[2-(5-methyl-isoxazol-3-yl)-2H-pyrazol-3-yl]-piperidin-1-yl}-propan-1-one], the pIC50 was 5.52 to 6.52 at PDHK2 and 4.30 to 5.52 in the assay on PDH-Elalpha (pSer300). For the same compound, at human PDHK2 (12-407), the pKd was > 6.52.

As to `COc1ccc(-n2cncc2C2CCN(C(=O)[C@@](C)(O)C(F)(F)F)CC2)cc1` [Compound A131, (R)-3,3,3-Trifluoro-2-hydroxy-1-{4-[3-(4-methoxy-phenyl)-3 H-imidazol-4-yl]-piperidin-1-yl}-2-methyl-propan-1-one], the pIC50 at PDHK2 and in the assay with PDH-Elalpha (pSer300) was 5.52 to 6.52 in each case. Also, the negative-log Kd (pKd) at human PDHK2 (12-407) is > 6.52.

In the case of `C[C@@](O)(C(=O)N1CCC(c2ccnn2-c2ccc(F)cc2Cl)CC1)C(F)(F)F` [Compound A39, (R)-1-{4-[2-(2-Chloro-4-fluoro-phenyl)-2H-pyrazol-3-yl]-piperidin-1-yl}-3,3,3-trifluoro-2-hydroxy-2-methyl-propan-1-one], the values for the negative logarithm of the IC50 (pIC50) at PDHK2 and with PDH-Elalpha (pSer300) were > 6.52 and 5.52 to 6.52, respectively. Further, on human PDHK2 (12-407), the pKd is > 6.52.

In the case of `C[C@@](O)(C(=O)N1CCC(c2ccnn2-c2ccc(F)cn2)CC1)C(F)(F)F` [Compound A112, (2R)-1-[4-[2-(5-Fluoro-2-pyridyl)-2H-pyrazol-3-yl]-1-piperidyl]-3,3,3-trifluoro-2-hydroxy-2-methyl-propan-1-one], the negative logarithm of the IC50 (pIC50) is 5.52 to 6.52 at PDHK2 and 4.30 to 5.52 in the assay on PDH-Elalpha (pSer300). At human PDHK2 (12-407), the pKd is > 6.52.

As to `C[C@@](O)(C(=O)N1CCC(c2ccnn2-c2ccc(F)cc2F)CC1)C(F)(F)F` [Compound A26, (R)-1-{4-[2-(2,4-Difluoro-phenyl)-2H-pyrazol-3-yl]-piperidin-1-yl}-3,3,3-trifluoro-2-hydroxy-2-methyl-propan-1-one], the negative logarithm of the IC50 (pIC50) at PDHK2 is > 6.52; in the assay on PDH-Elalpha (pSer300), 5.52 to 6.52. Besides, the negative-log Kd (pKd) at human PDHK2 (12-407) was > 6.52.

For the compound `CC1CN(C(=O)[C@@](C)(O)C(F)(F)F)CCC1c1ccn(-c2ccc(F)cc2)n1` (stereo partly drawn) [Compound A44, (R)-1-{4-[1-(4-Fluoro-phenyl)-1H-pyrazol-3-yl]-3-methyl-piperidin-1-yl}-3,3,3-trifluoro-2-hydroxy-2-methyl-propan-1-one], the negative-log IC50 (pIC50) at PDHK2 and in the assay on PDH-Elalpha (pSer300) was 5.52 to 6.52 each time. Also, the pKd at human PDHK2 (12-407) is > 6.52.

Consider `Cc1ccc(-n2nccc2C2CCN(C(=O)[C@@](C)(O)C(F)(F)F)CC2)cc1` [Compound A1, (R)-3,3,3-trifluoro-2-hydroxy-2-methyl-1-[4-(2-p-tolyl-2H-pyrazol-3-yl)-piperidin-1-yl]-propan-1-one], for which the pIC50 is > 6.52 on PDHK2 and 5.52 to 6.52 in the assay with PDH-Elalpha (pSer300). The pKd on human PDHK2 (12-407) is > 6.52.

On to `C[C@@H]1CN(C(=O)[C@@](C)(O)C(F)(F)F)CC[C@@H]1c1ccnn1[C@H]1CC[C@@H](O)CC1` [Compound A120, (R)-3,3,3-Trifluoro-2-hydroxy-1-{(3S,4S)-4-[2-(4-hydroxy-cyclohexyl)-2H-pyrazol-3-yl]-3-methyl-piperidin-1-yl}-2-methyl-propan-1-one], for which the figures for the negative logarithm of the IC50 (pIC50) on PDHK2 and in the assay on PDH-Elalpha (pSer300) were > 6.52 and 5.52 to 6.52, respectively. In addition, the pKd on human PDHK2 (12-407) is > 6.52.

For `C[C@@](O)(C(=O)N1CCC(c2ccnn2-c2ccccc2)CC1)C(F)(F)F` [Compound A25, (R)-3,3,3-Trifluoro-2-hydroxy-2-methyl-1-[4-(2-phenyl-2H-pyrazol-3-yl)piperidin-1-yl]-propan-1-one], the pIC50 on PDHK2 and in the assay with PDH-Elalpha (pSer300) was 5.52 to 6.52 throughout. Also, the negative logarithm of the Kd (pKd) on human PDHK2 (12-407) was > 6.52.

On to `C[C@@](O)(C(=O)N1CCC(c2ccnn2C2CCCCC2)CC1)C(F)(F)F` [Compound A37, (R)-1-[4-(2-Cyclohexyl-2H-pyrazol-3-yl)-piperidin-1-yl]-3,3,3-trifluoro-2-hydroxy-2-methyl-propan-1-one], for which the pIC50 is 5.52 to 6.52 at PDHK2 and 4.30 to 5.52 in the assay with PDH-Elalpha (pSer300). The pKd at human PDHK2 (12-407) was > 6.52.
